In one assay the target is T1, P2RY2 (Rattus norvegicus, UniProt P41232).
T1 construct: endogenous in cells; host or cells: null (parental) FRT cells
The assay is described as follows: Fluo-4 Ca2+ assay in null FRT cells with P2RY2 antagonist. It counts as cell-based. The following applies: AR-C118925XX 10 μM; UTP 0.25 μM; FIG. 5B. The method, then:
Experiments were performed using the microplate reader described for the HS-YFP assay. FRT and HEK293 cells were cultured until confluence in 96-well microplates (3603, Corning). Cells were washed 2 times with PBS (150 μl/wash) and then loaded for 1 h at 37° C. with 5 μM Fluo-4/AM (Thermo Fisher Scientific; catalog number: F23917) in PBS containing 10 mM glucose, 0.5 mM sulfinpyrazone, and 1% fetal bovine serum. After loading, cells were washed 2 times with PBS-glucose-sulfinpyrazone (150 μl/wash) and incubated for 20 min at 37° C. with 60 μl of PBS plus 10 mM glucose and 0.5 mM sulfinpyrazone containing compounds of interest at 10 μM final concentration or vehicle. Each well was assayed individually. Fluo-4 fluorescence (500 nm excitation, 535 nm emission) was detected every 200 ms for 16-40 s. Two seconds after the start of fluorescence recording, the reader automatically injected 165 μl of a modified PBS containing 136 mM KCl instead of NaCl. This solution also contained 10 mM glucose, 0.5 mM sulfinpyrazone, and UTP or SLIGR-NH2 (CAS #171436-38-7) at a final concentration that depended on the specific cell type. […] The Fluo-4 fluorescence increase was quantified using a procedure compiled in Microsoft Excel after background subtraction and normalization for the initial value measured before UTP addition.

The subject of the next assay is PLC. Kind of assay: PLC assay in FRT cells expressing PH-PLC-GFP sensor. The following applies: pre-incubation with BAPTA/AM; FIG. 3B. It counts as cell-based. On the procedure: FRT cells with stable expression of PLC6-PH-GFP, generated in the laboratory of inventors, were cultured up to subconfluent condition in p-Plate96 microplates (Ibidi). Each well of a 96-well microplate was washed 3 times, leaving 125 μl of phosphate-buffered saline (PBS) containing compounds at 10 μM final concentration or vehicle. After 20 min of incubation at 37° C., microplate was moved on the stage of an inverted microscope equipped with GFP excitation/emission filters, 40×oil immersion objective (Olympus, Segrate, Italy), Lambda DG4 illumination system (Sutter Instrument Co., Novato, CA, USA), Prime cmos camera (Photometrics, Tucson, AZ, USA) and MetaMorph imaging acquisition software (Molecular Devices, Sunnyvale, CA, USA). Time-lapse experiments were carried out with 50 ms exposure time, 20 frame/s rate, and 2.4 min total duration. After 20 s and 90 s, UTP 0.25 μM and 100 μM (final concentrations) was respectively added. Analysis was performed with MetaMorph software, by quantifying GFP fluorescence cytoplasmic accumulation in manually selected single cell regions of interest (ROI). After background subtraction, fluorescence recordings were normalized for the initial value.

A further assay deals with FRT cells. The assay is described as follows: Fluo-4 Ca2+ mobilization assay in parental (null) FRT cells. It counts as cell-based, rat. The following applies: for potentiation of the Ca2+ increase elicited by UTP, multiple concentrations: UTP 0.25 μM, compounds 1-80 μM, vs vehicle (DMSO), FIG. 8. The method, then:
Experiments were performed using the microplate reader described for the HS-YFP assay. FRT and HEK293 cells were cultured until confluence in 96-well microplates (3603, Corning). Cells were washed 2 times with PBS (150 μl/wash) and then loaded for 1 h at 37° C. with 5 μM Fluo-4/AM (Thermo Fisher Scientific; catalog number: F23917) in PBS containing 10 mM glucose, 0.5 mM sulfinpyrazone, and 1% fetal bovine serum. […] Each well was assayed individually. Fluo-4 fluorescence (500 nm excitation, 535 nm emission) was detected every 200 ms for 16-40 s. Two seconds after the start of fluorescence recording, the reader automatically injected 165 μl of a modified PBS containing 136 mM KCl instead of NaCl. This solution also contained 10 mM glucose, 0.5 mM sulfinpyrazone, and UTP or SLIGR-NH2 (CAS #171436-38-7) at a final concentration that depended on the specific cell type. For UTP we used: 0.25 μM for FRT; 1 μM for HEKR2; 5 μM for HEK3XKO, HEKR1, and HEKR3. For SLIGR-NH2 we used: 10 μM for HEKR1; 4 μM for HEKR2. These concentrations were chosen to elicit ˜20% of maximal effect based on UTP and SLIGR-NH2 dose-response relationships. The lower agonist concentrations used for HEKR2 cells, compared to HEKR1 cells, are consistent with the higher affinity of ITPR2 for IP3 (16). The Fluo-4 fluorescence increase was quantified using a procedure compiled in Microsoft Excel after background subtraction and normalization for the initial value measured before UTP addition.
In a further experimental setting, experiments were performed using as above the FLUOstar Omega (BMG Labtech, Offenburg, Germany) microplate reader equipped with syringe pumps and optical excitation/emission filters optimized for yellow fluorescent protein (YFP) fluorescence (ET500/20× and ET535/30m, respectively; Chroma Technology Corporation). FRT and Chem-1 cells were cultured until confluence in 96-well microplates (cc3603, Corning). Cells were washed 2 times with PBS (150 μl/wash) and then loaded for 1 h at 37° C. with 5 μM Fluo-4/AM (Thermo Fisher Scientific; catalog number: F23917) in PBS containing 10 mM glucose, 0.5 mM sulfinpyrazone, and 1% fetal bovine serum. […] Each well was assayed individually. Fluo-4 fluorescence (500 nm excitation, 535 nm emission) was detected every 200 ms for 16-40 s. Two seconds after the start of fluorescence recording, the reader automatically injected 165 μl of a modified PBS containing 136 mM KCl instead of NaCl. This solution also contained, in addition to 10 mM glucose and 0.5 mM sulfinpyrazone, the following agonists: UTP (U6625, Merck) or CCK8s (23371, Cayman Chemical). The Fluo-4 fluorescence increase was quantified using a procedure compiled in Microsoft Excel after background subtraction and normalization for the initial value measured before UTP or CCK8s addition.

For another assay, the system named is ENaC. Kind of assay: Short-circuit current recordings on human cultured bronchial epithelia, ENaC function. It counts as cell-based. The following applies: apical addition; ARN7149 10 μM, ARN11391 20 μM, ARN4550 20 μM, UTP 10 nM; FIG. 9. From the text:
In a further experimental setting, snapwell supports (cc3801, Corning) carrying differentiated bronchial epithelia generated in vitro were mounted in a vertical chamber resembling an Ussing system with internal fluid circulation (EM-CSYS-8, Physiologic Instruments, San Diego, CA, USA). The apical and basolateral hemichambers were filled with a solution containing (in mM): 126 NaCl, 0.38 KH2PO4, 2.13 K2HPO4, 1 MgSO4, 1 CaCl2), 24 NaHCO3, and 10 glucose. Both sides were continuously bubbled with a gas mixture containing 5% CO2 and 95% air. The temperature of the solution was kept at 37° C. throughout the experiment.
During recordings, the following molecules (in addition to ARN7149, ARN11391, and ARN4550) were added in the apical solution: elastase (SE2093002, Serva); UTP (U6625, Merck); amiloride (A7410, Merck). Transepithelial voltage was short-circuited with a voltage-clamp (VCC MC8, Physiologic Instruments, San Diego, CA, USA) connected to the apical and basolateral chambers via Ag—AgCl electrodes and agar bridges (2% agar in 1 M KCl). The offset between voltage electrodes and the fluid resistance were cancelled before experiments. The resulting short-circuited current from each channel was recorded on a personal computer with the Acquire & Analize 2.3 software (Physiologic Instruments, San Diego, CA, USA).

The test system of a further assay is TMEM16A. Kind of assay: HS-YFP assay in ITPR-defective HEK293 cells transiently transfected with TMEM16A. It is filed as cell-based. The following applies: ionomycin 1 μM, FIG. 2D.

T1 sequence (P41232 whole entry): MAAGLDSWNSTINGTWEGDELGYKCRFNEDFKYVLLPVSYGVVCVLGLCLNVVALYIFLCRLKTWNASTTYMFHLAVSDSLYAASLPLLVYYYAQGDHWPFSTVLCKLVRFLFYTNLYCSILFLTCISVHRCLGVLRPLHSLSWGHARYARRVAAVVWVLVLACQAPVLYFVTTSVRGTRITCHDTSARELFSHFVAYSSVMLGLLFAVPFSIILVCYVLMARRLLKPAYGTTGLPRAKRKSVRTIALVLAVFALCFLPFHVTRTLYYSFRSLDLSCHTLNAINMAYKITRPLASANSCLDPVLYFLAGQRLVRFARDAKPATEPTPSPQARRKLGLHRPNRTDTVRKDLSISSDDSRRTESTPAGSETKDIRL

For the compound `Cc1ccc2c(c1)C=Cc1cc(C)ccc1C2c1cn(Cc2ccc(C(=O)Nc3nn[nH]n3)o2)c(=O)[nH]c1=S` [AR-C118925XX], on P2RY2, the “effect of UTP alone and of UTP plus potentiators on Ca2+ mobilization” value is on record as “completely blocked”.
With `CC(=O)OCOC(=O)CN(CC(=O)OCOC(C)=O)c1ccccc1OCCOc1ccccc1N(CC(=O)OCOC(C)=O)CC(=O)OCOC(C)=O` [BAPTA/AM, 1,2-Bis(2-aminophenoxy)ethane-N,N,N′,N′-tetraacetic acid tetrakis(acetoxymethyl ester), reference compound], in the assay on PLC, the “PLC activity with/without compounds after Ca2+ chelation” value is given as “markedly inhibited”.
Take `COCCN(C(=O)c1cc(OC)c(OC)c(OC)c1)c1nc(-c2ccccc2)cs1` [Eact, reference compound]: the “direct Ca2+ mobilization in the absence of UTP (Fluo-4)” value with FRT cells (acute addition, compounds 10 μM, Eact 5 μM, FIG. 2B) was “elicits Ca^2+ influx”.
Regarding `O=c1ccn([C@@H]2O[C@H](COP(=O)(O)OP(=O)(O)OP(=O)(O)O)[C@@H](O)[C@H]2O)c(=O)[nH]1` [UTP, reference compound], in the assay with ENaC, the “ENaC current decay (ENaC inhibition), short-circuit current” value was “ENaC current decay”.
For the compound `O=C(Nc1ccccc1OCC1CCCCO1)C1CCCN(c2ccccn2)C1` (stereo not shown) [compound 6, 1-(2-Pyridyl)-N-[2-(tetrahydropyran-2-ylmethoxy)phenyl]piperidine-3-carboxamide], the “potentiation of the Ca2+ increase elicited by UTP, multiple concentrations” value with FRT cells was “dose-dependent potentiation”.
Take `O=C(Nc1ccccc1OCC1CCCCO1)C1CC2C=CC1C2` (stereo not shown) [compound 7, N-[2-(Tetrahydropyran-2-ylmethoxy)phenyl]bicyclo[2.2.1]hept-5-ene-2-carboxamide]: in the assay with FRT cells, the “potentiation of the Ca2+ increase elicited by UTP, multiple concentrations” value is listed as “dose-dependent potentiation”.
Consider `C[C@H](CCC(=O)O)C[C@H](C)C[C@H](C)C(=O)/C=C(\O)[C@H](C)C[C@H](C)C/C=C/[C@@H](C)[C@@H](O)[C@@H](C)[C@@H](O)C[C@@H]1CC[C@@](C)([C@H]2CC[C@@](C)([C@@H](C)O)O2)O1` [ionomycin, reference compound], for which, in the assay with TMEM16A, the “activation of TMEM16A when Ca2+ directly increased (HS-YFP)” value was “large effect”.

The values are drawn from patent US20260138970A1, “MODULATORS OF THE CALCIUM SIGNALING CASCADE” (FONDAZIONE TELETHON ETS, priority 2022, published 2026).
